From publication PMC9611727, “Optimization of a Novel Mandelamide-Derived Pyrrolopyrimidine Series of PERK Inhibitors” (Pharmaceutics, 2022)

What was measured:
Kasumi-1 (FLT3wt) = experiment: Cell viability assay, Kasumi-1; format: cell-based; conditions: Homo sapiens
HRI = biological target: T1, HRI (Homo sapiens, UniProt Q9BQI3); experiment: ISR kinase cell-free biochemical assay (Carna), HRI; conditions: ATP 30 µM
T1 construct: purchased Carna 05-154
Procedure: In brief, 26 was dissolved in DMSO and serially diluted 3-fold to generate concentrations ranging from 10 µM to 0.2 nM in a 384-well plate using a TECAN EVO200 automated liquid handler. 10 nL stock solution was transferred into each well of a 384well assay plate by an Echo550 and an equivalent volume of DMSO was added to the control wells. To each assay well, recombinant protein was suspended in 20 µL reaction buffer (listed below) and incubated at 25 °C for 1.5 h while shaking at 1250 rpm. Following incubation, 10 µL of a FRET dilution buffer including 20 mM EDTA and 4 nM Tb-anti-peIF2a [pSer51] (Invitrogen, Cat# PV4815) was added to each well and incubated at 25 °C for 2 h while shaking at 600 rpm in the dark. Analysis was performed using an Envision Microplate Reader (PerkinElmer).

p-STAT5 = experiment: FLT3-ITD downstream signaling, p-STAT5 western blot in MV4-11 cells; format: cell-based; conditions: Homo sapiens, normalized to Crenolanib, read-out: pSTAT5 IC50
Procedure: (§1) MV-4-11 and EoL-1 were plated at a density 20,000 cells/well in a 96 well plate. Cells were incubated with DMSO, 1 µM docetaxel, or an 8-pt, 2-fold dose response of 26 in quadruplicate. On day 3 and day 7, cells from DMSO-treated wells were counted and cells from all wells were split back so that the DMSO-treated wells matched the original seeding density. Cells were centrifuged in 96 well filter plates (Sigma) and resuspended in fresh compound-containing media.
(§2) On day 10, cells were incubated with alamarBlue™ HS Cell Viability Reagent (Invitogen) (10 µL of alamarBlue in a well of 90 µL media) for 2 hours at 37C/5% CO2. Fluorescence was measured on the EnVision Plate reader (Perkin Elmer) at an ex/em of 560/590 nm. Raw fluorescence values were normalized to positive and negative controls (DMSO, 1 µM docetaxel) to get a % viability. Replicates were averaged and dose responses were plotted on a 4 Parameter Logistic […]
(§3) MV-4-11 cells were plated in 6 well plates overnight in reduced serum media (IMDM + 0.5% FBS). The following day, compound or vehicle were added to the plate for a final DMSO concentration of 0.1% and incubated at 37 C for 2 hours.
(§4) Cells were washed with 1X PBS (Gibco 10010-023), and lysed in RIPA buffer with added inhibitors. Protein concentration was determined using a BCA assay (Thermo Scientific 23225). […]

[1] = PK of 26 in plasma and pancreas of BALB/c nude mice; format: in vivo, mouse; conditions: 0.3 to 30 mg/kg single oral gavage
Procedure: For PK analysis of pyrrolopyrimidine analogs in mouse, rat, and dog plasma, the oral formulation was prepared as a solution containing 20% (w/v) Captisol in 25 mM NaH2PO4 buffer (pH 2). Compounds were administered orally by gavage at 10 mg/kg to female CD1 mice. After dosing, plasma samples were collected to characterize the PK profiles at 0.25, 0.5, 1, 2, 4, 8, 12 and 24 h post-dose. The plasma concentration of compound was determined by protein precipitation with acetonitrile and liquid chromatography with mass spectrometric detection (LC-MS/MS). Parameters were estimated using Phoenix (WinNonlin) pharmacokinetic software version 6.1.0 using a non-compartmental approach consistent with the oral route of administration. PK analysis of 26 in plasma and pancreas followed a similar analytical method as above, with minor modifications. Compound 26 was suspended in a vehicle consisting of 0.5% methylcellulose (400 cP) and 0.1% Tween80 in water and administered to BALB/c nude mice by oral gavage at 0.3, 1, 3, 10, 30 mg/kg. Plasma and pancreas were sampled from 5 mice per group following a single oral administration at 1, 4, 8, 12, 24 h post-dose.

p-ERK = experiment: FLT3-ITD downstream signaling, p-ERK western blot in MV4-11 cells; format: cell-based; conditions: Homo sapiens, normalized to Crenolanib, read-out: pERK IC50
Procedure: as §1, §2, §3, §4

T1 sequence (Q9BQI3 whole entry): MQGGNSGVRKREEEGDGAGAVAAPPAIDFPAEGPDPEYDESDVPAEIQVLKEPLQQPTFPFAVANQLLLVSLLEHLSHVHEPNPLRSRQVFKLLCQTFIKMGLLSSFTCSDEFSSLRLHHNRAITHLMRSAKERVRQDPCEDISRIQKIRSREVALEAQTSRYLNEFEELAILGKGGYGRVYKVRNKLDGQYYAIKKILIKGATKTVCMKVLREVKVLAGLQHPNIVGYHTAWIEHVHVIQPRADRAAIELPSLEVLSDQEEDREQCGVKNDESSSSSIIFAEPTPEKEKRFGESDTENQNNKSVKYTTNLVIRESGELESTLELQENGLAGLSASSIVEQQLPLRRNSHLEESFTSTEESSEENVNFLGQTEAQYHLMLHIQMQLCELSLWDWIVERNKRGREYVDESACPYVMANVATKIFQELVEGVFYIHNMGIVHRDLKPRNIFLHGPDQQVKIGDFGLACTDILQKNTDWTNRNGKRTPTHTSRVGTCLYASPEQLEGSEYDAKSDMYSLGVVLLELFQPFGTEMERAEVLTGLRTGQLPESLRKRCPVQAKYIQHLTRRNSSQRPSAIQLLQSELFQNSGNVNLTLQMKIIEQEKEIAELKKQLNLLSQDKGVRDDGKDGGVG

Cc1nc(N)c2c(-c3ccc(NC(=O)[C@H](O)c4cccc(C(F)(F)F)c4)cc3C)cn(C)c2n1 [Compound 26]
IC50 (Kasumi-1 (FLT3wt)): > 10000 nM | IC50 (HRI): > 10000 nM | IC50 (p-STAT5): 64 nM | exposure in plasma and pancreas [1]: dose-proportionate exposure | IC50 (p-ERK): 551 nM
